Test results published in patent US20160158200A1, “Combinations of Hepatitis C Virus Inhibitors” (priority 2013, published 2016).

System: HCV genotype-1a variant with glutamine 30 changed to glutamate in the NS5A protein
Assay type: cell-based
Details: test compound titrated with BMS-790052 fixed at 200 nM; genotype 1a Q30E replicon
In short: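 Synergy was assessed by combining several fixed amounts of an NS5A-targeting compound with a titration of the second compound of interest.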

Row | Compound | Fold-Synergistic 1a (Q30E) [fold]
1 | CC(C)[C@H](NC(=O)C1CCC(F)(F)CC1)c1ncc(-c2ccc(-c3ccc(-c4cnc([C@@H](NC(=O)C5CCC(F)(F)CC5)C(C)(C)C)[nH]4)cc3)cc2)[nH]1 [Compound Y-42] | >100
2 | CC(C)(C)[C@H](NC(=O)C1CCC(F)(F)CC1)c1ncc(C#Cc2ccc3cc(-c4cnc([C@@H](NC(=O)C5CCC(F)(F)CC5)C(C)(C)C)[nH]4)ccc3c2)[nH]1 [Compound B1] | >100
3 | CC(C)(C)[C@H](NC(=O)C1(C(O)c2ccccc2)CC1)c1nc(-c2ccc(-c3ccc(-c4c[nH]c([C@@H](NC(=O)C5(C(O)c6ccccc6)CC5)C(C)(C)C)n4)cc3)cc2)c[nH]1 (single isomer, unassigned) [Compound N-126C] | >100
4 | CC(C)(C)OC(=O)NC1(C(=O)N[C@H](c2nc(-c3ccc(-c4ccc(-c5c[nH]c([C@@H](NC(=O)C6(NC(=O)OC(C)(C)C)CC6(F)F)C(C)(C)C)n5)cc4)cc3)c[nH]2)C(C)(C)C)CC1(F)F (single isomer, unassigned) [Compound W-15] | >100
5 | O=C(c1nccc2ccccc12)N1CCC[C@H]1c1ncc(-c2ccc(-c3ccc(-c4cnc([C@@H]5CCCN5C(=O)c5nccc6ccccc56)[nH]4)cc3)cc2)[nH]1 [Compound S-202] | >100
6 | O=C(c1ccc(-c2ccccc2)cc1)N1CCC[C@H]1c1ncc(-c2ccc(-c3ccc(-c4cnc([C@@H]5CCCN5C(=O)c5ccc(-c6ccccc6)cc5)[nH]4)cc3)cc2)[nH]1 [Compound S-117] | >10
7 | C[C@H]1CCN(C(=O)C(=O)N2CCC(F)(F)CC2)C1c1nc(-c2ccc(-c3ccc(-c4c[nH]c(C5[C@@H](C)CCN5C(=O)C(=O)N5CCC(F)(F)CC5)n4)cc3)cc2)c[nH]1 (stereo partly drawn) [Compound W-186] | >100
8 | CC(C)(C)[C@H](NC(=O)C(C)(C)C1(O)CCC(F)(F)CC1)c1ncc(-c2ccc(-c3ccc4nc([C@@H](NC(=O)C(C)(C)C5(O)CCC(F)(F)CC5)C(C)(C)C)[nH]c4c3)cc2)[nH]1 [Compound B58A] | >100
9 | CC(C)[C@H](NC(=O)N1CCN(C)CC1)c1ncc(-c2ccc(-c3ccc(-c4cnc([C@@H](NC(=O)N5CCN(C)CC5)C(C)C)[nH]4)cc3)cc2)[nH]1 [Compound S-235] | >10
10 | CC(O)C(C)(C)C(=O)N[C@H](c1ncc(-c2ccc(-c3ccc(-c4cnc([C@@H](NC(=O)C(C)(C)C(C)O)C(C)(C)C)[nH]4)cc3)cc2)[nH]1)C(C)(C)C (single isomer, unassigned) [Compound B76] | >100
11 | CC1(C(=O)NC(c2nc(-c3ccc(-c4ccc(-c5c[nH]c(C(NC(=O)C6(C)CCCOC6)C(C)(C)C)n5)cc4)cc3)c[nH]2)C(C)(C)C)CCCOC1 (mixture of isomers) [Compound Y-100] | >100
12 | CC(C)C(NC(=O)C1CC(O)CN1C(=O)OC(C)(C)C)c1nc(-c2ccc(-c3ccc(-c4c[nH]c(C(NC(=O)C5CC(O)CN5C(=O)OC(C)(C)C)C(C)C)n4)cc3)cc2)c[nH]1 (stereo not drawn) [Compound W-100] | >100
13 | C#CCCC(=O)N[C@H](c1ncc(-c2ccc(-c3ccc(-c4cnc([C@@H](NC(=O)CCC#C)C(C)C)[nH]4)cc3)cc2)[nH]1)C(C)C [Compound S-44] | >100
14 | CC(C)(C)[C@H](NC(=O)[C@]1(C)C[C@@H](F)CN1)c1nc(-c2ccc(-c3ccc(-c4c[nH]c([C@@H](NC(=O)[C@]5(C)C[C@@H](F)CN5)C(C)(C)C)n4)cc3)cc2)c[nH]1 [Compound W-209] | >100
15 | CC(C)(C)[C@H](NC(=O)C1CCC(F)(F)CC1)c1nc2ccc3cc(-c4ccc5c(ccc6nc([C@@H](NC(=O)C7CCC(F)(F)CC7)C(C)(C)C)[nH]c65)c4)ccc3c2[nH]1 [Compound B25] | >100
16 | CC(C)(C)C(NC(=O)C1CC(=O)c2ccccc2C1)c1nc(-c2ccc(-c3ccc(-c4c[nH]c(C(NC(=O)C5CC(=O)c6ccccc6C5)C(C)(C)C)n4)cc3)cc2)c[nH]1 (mixture of isomers) [Compound S-256] | >100
17 | CC(C)(C)C(NC(=O)CC1CCOC2(CC2)C1)c1nc(-c2ccc(-c3ccc(-c4c[nH]c(C(NC(=O)CC5CCOC6(CC6)C5)C(C)(C)C)n4)cc3)cc2)c[nH]1 (mixture of isomers) [Compound L-75] | >100
18 | CC(C)[C@H](NC(=O)c1cc2ccccc2s1)c1ncc(-c2ccc(-c3ccc(-c4cnc([C@@H](NC(=O)c5cc6ccccc6s5)C(C)C)[nH]4)cc3)cc2)[nH]1 [Compound P-98] | >100
19 | CC(C)(C)[C@H](NC(=O)c1c(F)cccc1Cl)c1nc(-c2ccc(-c3ccc(-c4c[nH]c([C@@H](NC(=O)c5c(F)cccc5Cl)C(C)(C)C)n4)cc3)cc2)c[nH]1 [Compound N-66] | >100
20 | CC(C)[C@H](NC(=O)c1ccc(C#N)s1)c1ncc(-c2ccc(-c3ccc(-c4cnc([C@@H](NC(=O)c5ccc(C#N)s5)C(C)(C)C)[nH]4)cc3)cc2)[nH]1 [Compound Y-45] | >100

Row | Compound | Fold-Synergistic 1a (Q30E) [fold]
21 | CC(C)[C@H](NC(=O)CC(c1ccccc1)c1ccccc1)c1ncc(-c2ccc(-c3ccc(-c4cnc([C@@H](NC(=O)CC(c5ccccc5)c5ccccc5)C(C)C)[nH]4)cc3)cc2)[nH]1 [Compound S-30] | >100
22 | CN1CCC(C(=O)N[C@H](c2nc(-c3ccc(-c4ccc(-c5c[nH]c([C@@H](NC(=O)C6CCN(C)CC6)C(C)(C)C)n5)cc4)cc3)c[nH]2)C(C)(C)C)CC1 [Compound S-268] | >10
23 | CC(C)OC(=O)N1C2CCC1(C(=O)N[C@H](c1nc(-c3ccc(-c4ccc(-c5c[nH]c([C@@H](NC(=O)C67CCC(CC6)N7C(=O)OC(C)C)C(C)(C)C)n5)cc4)cc3)c[nH]1)C(C)(C)C)CC2.O=C(O)C(F)(F)F.O=C(O)C(F)(F)F [Compound W-118] | >100
24 | CC(C)(C)[C@H](NC(=O)C1(C(F)(F)F)CCCC1)c1nc(-c2ccc(-c3ccc(-c4c[nH]c([C@@H](NC(=O)C5(C(F)(F)F)CCCC5)C(C)(C)C)n4)cc3)cc2)c[nH]1 [Compound N-52] | >100
25 | CC(C)(C)C(NC(=O)C(C)(C)C1CCCCO1)c1nc(-c2ccc(-c3ccc(-c4c[nH]c(C(NC(=O)C(C)(C)C5CCCCO5)C(C)(C)C)n4)cc3)cc2)c[nH]1 (mixture of isomers) [Compound P-153] | >100
26 | CC(C)(C)OC(=O)N1CCC(C)(C)[C@H]1C(=O)N[C@H](c1nc(-c2ccc(-c3ccc(-c4c[nH]c([C@@H](NC(=O)[C@H]5N(C(=O)OC(C)(C)C)CCC5(C)C)C(C)(C)C)n4)cc3)cc2)c[nH]1)C(C)(C)C [Compound W-214] | >100
27 | CC(C)(C)[C@H](NC(=O)C(C)(O)C1(C)CC1)c1nc(-c2ccc(-c3ccc(-c4c[nH]c([C@@H](NC(=O)C(C)(O)C5(C)CC5)C(C)(C)C)n4)cc3)cc2)c[nH]1 (single isomer, unassigned) [Compound L-93a] | >100
28 | CC(C)(C(=O)N[C@H](c1nc(-c2ccc(-c3ccc(-c4c[nH]c([C@@H](NC(=O)C(C)(C)C(O)C5CCC(F)(F)CC5)C(C)(C)C)n4)cc3)cc2)c[nH]1)C(C)(C)C)C(O)C1CCC(F)(F)CC1 (single isomer, unassigned) [Compound N-143B] | >100
29 | CC(C)C(NC(=O)C1(N2CCC(F)(F)CC2)COC1)c1nc(-c2ccc(-c3ccc(-c4c[nH]c(C(NC(=O)C5(N6CCC(F)(F)CC6)COC5)C(C)C)n4)cc3)cc2)c[nH]1 (stereo not drawn) [Compound W-64] | >100
30 | CC(C)(C)[C@H](NC(=O)C1CC(=O)C1)c1nc(-c2ccc(-c3ccc(-c4c[nH]c([C@@H](NC(=O)C5CC(=O)C5)C(C)(C)C)n4)cc3)cc2)c[nH]1 [Compound W-171] | >100
31 | O=C(N1CCC[C@H]1c1ncc(-c2ccc(-c3ccc(-c4cnc([C@@H]5CCCN5C(=O)C5(c6ccc(F)cc6Cl)CCCC5)[nH]4)cc3)cc2)[nH]1)C1(c2ccc(F)cc2Cl)CCCC1 [Compound S-156] | <10
32 | COC(c1ccccc1)C1(C(=O)N[C@H](c2nc(-c3ccc(-c4ccc(-c5c[nH]c([C@@H](NC(=O)C6(C(OC)c7ccccc7)CC6)C(C)(C)C)n5)cc4)cc3)c[nH]2)C(C)(C)C)CC1 (single isomer, unassigned) [Compound N-137B] | >100
33 | CC(C)[C@H](NC(=O)Cc1cnccn1)c1ncc(-c2ccc(-c3ccc(-c4cnc([C@@H](NC(=O)Cc5cnccn5)C(C)C)[nH]4)cc3)cc2)[nH]1 [Compound S-60] | <10
34 | CC(C)(C)[C@H](NC(=O)CC1CC(F)(F)C1)c1nc(-c2ccc(-c3ccc(-c4c[nH]c([C@@H](NC(=O)CC5CC(F)(F)C5)C(C)(C)C)n4)cc3)cc2)c[nH]1 [Compound N-120] | >100
35 | CO[C@@H](C(=O)N[C@H](c1nc(-c2ccc(-c3ccc(-c4c[nH]c([C@@H](NC(=O)[C@H](OC)c5ccccc5)C(C)(C)C)n4)cc3)cc2)c[nH]1)C(C)(C)C)c1ccccc1 [Compound P-15] | >100
36 | COC(c1ccccc1)C1(C(=O)N[C@H](c2nc(-c3ccc(-c4ccc(-c5c[nH]c([C@@H](NC(=O)C6(C(OC)c7ccccc7)CC6)C(C)(C)C)n5)cc4)cc3)c[nH]2)C(C)(C)C)CC1 (single isomer, unassigned) [Compound N-137A] | >100
37 | CCN(CC)S(=O)(=O)NC(c1nc(-c2ccc(-c3ccc(-c4c[nH]c(C(NS(=O)(=O)N(CC)CC)C(C)(C)C)n4)cc3)cc2)c[nH]1)C(C)(C)C [Compound L-121] | >100
38 | CC(C)(C)[C@H](NC(=O)C1CCC(F)(F)CC1)c1nc2ccc(C#Cc3ccc4nc([C@@H](NC(=O)C5CCC(F)(F)CC5)C(C)(C)C)[nH]c4c3)cc2[nH]1 [Compound B38] | >100
39 | CC(C)[C@H](NC(=O)Cc1ccccc1)c1ncc(-c2ccc(-c3ccc(-c4cnc([C@@H](NC(=O)Cc5ccccc5)C(C)C)[nH]4)cc3)cc2)[nH]1 [Compound S-36] | >10
